Reference: patent US10137084B2, “Use of bethanechol for treatment of xerostomia” (priority 2009, dated 2018)

What was measured:
[1] = test system: male Sprague-Dawley rats; experiment: efficacy study: saliva production after topical instillation into the oral cavity of anaesthetised rats; type: in vivo, rat; settings: saturated solution
Description: In the experiments outlined below, bethanechol chloride for buccal administration was prepared as a saturated solution in a solvent mixture comprising PEG 400, glycerol, ethanol and sodium phosphate buffer. Specific solvent amounts were 30% PEG 400, 30% glycerol, 20% ethanol with 20% phosphate buffer (formed by mixing 50 ml of 0.1M sodium phosphate monobasic (monohydrate) with sufficient 0.1M sodium phosphate dibasic (heptahydrate) until a pH of 5.5 was achieved). Bethanechol chloride was present at up to 33%.
In order to prepare a saturated solution of bethanechol chloride the following method was used. A magnetic flea was placed into a 20 ml scintillation vial and the weight of both was recorded. Exactly 0.8 g of the pH 5.5 buffer solution was placed into the container. […] Once the saturated solution (containing un-dissolved bethanechol) had been achieved, the vial was placed onto a balance and the total weight recorded. […] The amounts of ethanol, glycerol and PEG 400 were calculated to make a solution containing 30% PEG 400, 30% glycerol, 20% ethanol and 20% buffer and bethanechol. […]
Saliva production data were analysed by repeated measures two-way ANOVA followed by Bonferronis post tests (GraphPad Prism version 5.0, GraphPad Software, San Diego, Calif., USA). […]

[2] = test system: patients with xerostomia; experiment: clinical study in patients with xerostomia, buccal solution versus placebo; type: in vivo, human; settings: approximately 0.5 ml solution retained against the buccal mucosa for 1 to 2 minutes and then swallowed, crossover versus placebo
Description: A cohort of approximately 20 patients with xerostomia is randomised to receive either placebo or bethanechol formulation or vice versa with at least 3 days washout between the treatment segments. Each treatment is given as a small volume (approximately 0.5 ml) solution to be retained against the buccal mucosa for 1 to 2 minutes and then swallowed. Clinical investigations include vital signs, haematology/chemistry and appearance of the buccal mucosa. Efficacy measurements include salivary flow and composition of major and minor glands using standard techniques (see e.g. Ferguson 1999, Archives of Oral Biol., 44:S11-S14; Boros et al., Archives of Oral Biol., 44:S59-S62) and the assessment of subjective oral dryness/comfort using validated measures (see e.g. Chainani-Wu et al., 2006, Spec. Care Dentist 26(4):164-170).

[3] = test system: rats; experiment: cardiovascular and respiratory parameters after application to the buccal cavity of anaesthetised rats; type: in vivo, rat
Source text: (§1) In separate experiments, the effects of bethanechol (saturated solution, see above) were compared with those of physostigmine (1% solution in saline) on cardiovascular and respiratory parameters when applied to the buccal cavity of rats. Anaesthesia was induced in animals with urethane (1.75 g/kg given i.p.). Each animal was artificially ventilated via a tracheal cannula that was connected to a Fleisch (size 00) pneumotachograph and a pressure transducer (pressure range ±2 cm H2O). […] The left carotid artery was cannulated for recording blood pressure and heart rate, and the left jugular vein cannulated for drug administration. For topical administration, after 15-30 minutes a Parafilm ball was inserted into the back of the oral cavity to prevent the loss of solution into the oesophagus and airways. At T−10 minutes a cotton wool ball was inserted into the oral cavity and 10 minutes later it was removed and excess saliva wiped away. At T=O minutes physostigmine (1%, 10 microliters each on left and right sides) or bethanechol (10 microliters each on left and right sides) were instilled using a pipette. At T=10 minutes, another cotton wool ball was inserted into the oral cavity, 10 min later, it was removed and the excess saliva wiped away. The effects on baseline cardiovascular and respiratory parameters were recorded over 90 minutes. Physostigmine produced changes in all measured parameters, the mean maximum effects seen during the observation period were for pulmonary inflation pressure 44% increase, mean arterial pressure 17% decrease and heart rate 9.3% decrease (all n=2). In contrast, bethanechol produced minimal (and not significant) effects on any of these parameters, the mean maximum changes being 0% change, 3% decrease and 1% decrease for pulmonary inflation pressure, mean arterial pressure and heart rate respectively (n=3).

[4] = test system: rats; experiment: cardiovascular and respiratory effects after intravenous administration in rats; type: in vivo, rat; settings: n=3
Source text: as §1
For an additional comparison, the effects of bethanechol (prepared in saline, dosing volume 0.1 ml) over a dose range of 0.3 micrograms/kg to 300 micrograms/kg administered intravenously were studied in rats. Doses were administered in ascending order to each animal (n=3) and cardiovascular and respiratory effects monitored over 5 minutes or until the recorded parameter had returned to baseline (whichever was the later). […] The effects observed with bethanechol at 300 micrograms/kg were mean arterial pressure 72% decrease, heart rate 69% decrease and pulmonary inflation pressure 30% increase.

[5] = buccal, 10 microliters each on left and right sides, recorded over 90 minutes, physostigmine 1% (n=2), bethanechol saturated solution (n=3)

SMILES	salivary output ([1]; applied topically, for up to 70 minutes)	increase of total saliva production above vehicle effect ([1]; 10 microliters on each side of the mouth, 70 minute collection period, P less than 0.01, n=4) [%]	salivary flows [2]	subjective oral dryness/comfort scores [2]	heart rate, mean maximum effect (decrease) ([3]; rat, in vivo) [%]	mean arterial pressure, mean maximum effect (decrease) ([3]; rat, in vivo) [%]	pulmonary inflation pressure, mean maximum effect (increase) ([3]; rat, in vivo) [%]	heart rate decrease ([4]; 0.3 micrograms/kg, in saline) [%]	mean arterial pressure decrease ([4]; 0.3 micrograms/kg, in saline) [%]	heart rate decrease ([4]; 300 micrograms/kg, in saline) [%]	mean arterial pressure decrease ([4]; 300 micrograms/kg, in saline) [%]	pulmonary inflation pressure increase ([4]; 300 micrograms/kg, in saline) [%]	dose at which increases in pulmonary inflation pressure were seen ([4]; ascending doses 0.3 to 300 micrograms/kg) [micrograms/kg]	heart rate, mean maximum effect (decrease) [3, 5] [%]	mean arterial pressure, mean maximum effect (decrease) [3, 5] [%]	pulmonary inflation pressure, mean maximum effect (increase) [3, 5] [%]
CC(C[N+](C)(C)C)OC(N)=O (stereo not shown) [bethanechol, Bethanechol chloride]	sustained and significant increase	72	increase salivary flows	improve subjective oral dryness/comfort scores	1	3	0	6	31	69	72	30	≥ 3	–	–	–
CNC(=O)Oc1ccc2c(c1)[C@]1(C)CCN(C)[C@@H]1N2C [physostigmine]	–	–	–	–	–	–	–	–	–	–	–	–	–	9.3	17	44
